The values below come from patent publication US8293212B2, “Inhibitor screening method and atopic dermatitis like symptom inducing method which utilizes induction of production of interleukin 18 by keratinocyte and utilization of same” (Japan Science & Technology Agency, priority 2003, dated 2012).

Where a SMILES comes first, the peptide text is derived from it. The star is where a group is joined. Cbz = O=C(OCc1ccccc1)*; CH2F = FC*

Assay [1] concerns Kupffer cells. The following applies: secretion caused by LPS or membrane-bound Fas ligand stimulation; stated as background; cited from earlier work.
The test system of assay [2] is KC of wild-type mice stimulated with SpA. The experiment in a line: Effect of caspase inhibitors on IL-18 secretion from SpA-stimulated KC. In kind it is cell-based, mouse. The following applies: 20 μM inhibitor, 500 μg/ml SpA, 24 hours (FIG. 7C). The method, then: (§1) KC (5×10^5/ml) or PAM212 cells (2×10^5/ml) were incubated with a variety of doses of SpA and 1 μg/ml LPS or mFasL (1×10^6/ml) for 24 hours. In some examples, KC of wild-type mice were incubated with 100 μg/ml SpA in the presence of 20 μM of ZVAD or YVAD for 24 hours. IL-18 concentration and its activity in each supernatant were determined by ELISA and bioassay respectively. In some examples, KC were incubated with 500 μg/ml SpA for 4 hours, and total RNA was extracted, followed by RT-PCR (see Tsutsui, H., Matsui, K., Kawada, N., Hyodo, Y., Hayashi, N., Okamura, H., Higashino, K. and Nakanishi, K. 1997. IL-18 accounts for both TNF-α and Fas ligand-mediated hepatotoxic pathways in endotoxin-induced liver injury in mice. J. Immunol. 159:3961). As to primers for IL-18, IL-12p35, IL-12p40, or β-actin, and PCR conditions for individual cytokines, see the Tsutsui et al.
To be specific, KC were prepared from wild-type mice, caspase-1-deficient mice, TLR2-deficient mice, or MyD88-deficient mice. The KC of the wild-type mice were incubated with 500 μg/ml SpA in the presence of 20μ MZVAD, 20 μM YVAD, or the same volume of DMSO(Veh) for 24 hours. On the other hand, KC from each of the mutants were incubated with 500 μg/ml SpA for 24 hours. IL-18 in each supernatant was measured by ELISA. The result is illustrated in FIG. 7C. […]

The next assay has as its system normal B6 mice. The experiment in a line: Application of SpA on ear skin of normal B6 mice, serum IL-18/IgE and Th1/Th2 differentiation. In kind it is in vivo, mouse. On the procedure: Splenic CD4^+ T cells were isolated from variously treated mice using an AutoMACS™ separator (manufactured by Miltenyi Biotec). The newly isolated spleen cells were incubated with anti-CD4 beads (manufactured by Miltenyi Biotec). The purity of the CD4^+ T cells was more than 98%. The cells (1×10^6/ml) were incubated with immobilized anti-CD3ε (manufactured by PharMingen) for 48 hours. Concentrations of IFN-γ and IL-4 in each supernatant were determined by ELISA.
(§2) Concentration of IL-18 was determined by an ELISA kit manufactured by MBL. IL-4, IFN-γ, and IL-1β were determined by an ELISA kit manufactured by Genzyme. An ELISA kit for IL-5 was purchased from Endogen. IgE serum level was determined by an ELISA kit manufactured by pharMingen. IFN-γ induction ability of IL-18 was determined by bioassay using clones of IL-18-responsive mouse NK cells (see Non-Patent Document 6 and others)
Solutions made by dissolving various doses of SpA in 5 μl vehicle (50% glycerol in PBS) were prepared, and the SpA solutions were applied on ear skin of wild-type mice for 14 days. For the control study, 5 μl vehicle without SpA was used. One mouse was caged to avoid effects from other mice.
To be specific, various amounts of SpA or only vehicles were applied on ear skin of normal B6 mice once a day for two weeks. After that, on day 14, serum and spleens were sampled so as to measure concentration of IL-18 or IgE. Further, splenic CD4^+ T cells from mice on which vehicle or SpA(100 μg/day) was applied were incubated with plate-bound anti-CD3 for 48 hours, and concentrations of IFN-γ and IL-4 in each supernatant were measured by ELISA. The results of the measurements are illustrated in FIGS. 6A through 6C.

The subject of another assay is NC/Nga mice. The experiment in a line: Induction of AD-like skin lesion by application on shaven backs of NC/Nga mice. In kind it is in vivo, mouse. Particulars: 4% of SDS, SpA 200 μg/day, alone or as mixture.
The subject of assay [3] is Kupffer cells. The experiment in a line: Cytokine expression and secretion of Kupffer cells after stimulation. It is filed as cell-based, mouse. The following applies: in response to SpA, data not shown. On the procedure:
Kupffer cells were prepared according to Non-Patent Document 6. Kupffer cells (1×10^6/ml) were incubated with 1 μg/ml LPS (lypopolysaccharide) for 4 hours, and their IL-18, IL-12p35, IL-12p40 and β-actin expressions were determined as mRNA levels by RT-PCR.
Next, it was examined whether SpA-stimulated KC secretes IL-12 as well as IL-18. In order to detect a small amount of IL-12, total RNA were obtained from KC that had been incubated with SpA for 4 hours, and RT-PCR was performed using the RNA. To be specific, KC and Kupffer cells of wild-type B6 mice were separately incubated in the presence/absence of 500 μg/ml SpA, and in the presence/absence of 1 μg/ml LPS for 4 hours. Expression level of mRNA of IL-18, IL-12p40, IL-12p35, and β-actin out of all extracted RNA were measured by RT-PCR. The result of the measurement is illustrated in FIG. 7D.

In assay [4] the test system is KC from wild-type B6 mice. The experiment in a line: IL-18 secretion from newly isolated KC after stimulation, ELISA of supernatant. It is filed as cell-based, mouse. The method, then: as §2
In order to delete DC, KC were incubated with CD11c microbeads (manufactured by Miltenyi Biotec), and then CD 11c^+ cells were depleted using an AutoMACS™ separator.
as §1, with “al. […]” for “al.”
To be specific, KC or CD11c^+ cell-depleted KC prepared from skin of wild-type B6 mice were analyzed for their expression of CD11c and MHC class II (1-A^b) by flow cytometry. These cells were incubated with or without SpA for 24 hours, and concentration of IL-18 in the resulting supernatant was measured by ELISA. […]
Further, because Kupffer cells secrete IL-18 in response to stimulation with LPS or membrane-bound Fas ligand, it was examined whether these stimuli induce IL-18 secretion from KC. […] IL-18 contained in each resulting supernatant was measured by ELISA.

A further assay deals with KC of wild-type B6 mice. Briefly: IL-12 expression (RT-PCR) and IL-12 secretion (ELISA) in SpA-stimulated KC. It is filed as cell-based, mouse. On the procedure: as §1
Next, it was examined whether SpA-stimulated KC secretes IL-12 as well as IL-18. In order to detect a small amount of IL-12, total RNA were obtained from KC that had been incubated with SpA for 4 hours, and RT-PCR was performed using the RNA. […] Expression level of mRNA of IL-18, IL-12p40, IL-12p35, and β-actin out of all extracted RNA were measured by RT-PCR. […]

The next assay deals with PAM212 cells. The experiment in a line: IL-18 secretion and IFN-γ-inducing bioactivity of IL-18 from PAM212 cells incubated with SpA. It is filed as cell-based, mouse. Particulars: PAM212 cells incubated with SpA 24 hours (FIG. 7A). On the procedure:
as §2
To be specific, LNK5E6 cells, having higher responsiveness to stimulation with IL-18 in terms of IFN-γ production than LNK5E3 cells (see Non-Patent Document 6), were incubated with a variety of samples and 100 pg/ml IL-12, in the presence or absence of anti-IL-18 antibody (50 μg/ml), for 48 hours. […]
KC (5×10^5/ml) or PAM212 cells (2×10^5/ml) were incubated with a variety of doses of SpA and 1 μg/ml LPS or mFasL (1×10^6/ml) for 24 hours. […] IL-18 concentration and its activity in each supernatant were determined by ELISA and bioassay respectively. […]
To be specific, PAM212 cells (culture strain of KC of mice) were incubated with or without SpA for 24 hours, and the IL-18 concentration and IFN-γ-inducing bioactivity of IL-18 in each supernatant were determined by ELISA and bioassay respectively. […] ND stands for “not detected”.

On to `COC(=O)C[C@H](NC(=O)[C@H](C)NC(=O)[C@@H](NC(=O)OCc1ccccc1)C(C)C)C(=O)CF` [ZVAD, Z-VAD-FMK] (Cbz-Val-Ala-Asp(OMe)-CH2F), for which the “inhibition of IL-18 secretion from Kupffer cells” value in the assay on Kupffer cells [1] is given as “strongly inhibit”. For the same molecule, the “inhibition of secretion of IL-18 from SpA-stimulated KC” value in assay [2] was “did not inhibit”.

`CC(=O)N[C@@H](Cc1ccc(O)cc1)C(=O)N[C@H](C(=O)N[C@@H](C)C(=O)N[C@@H](CC(=O)O)C(=O)CCl)C(C)C` [YVAD, Ac-YCAD-CMK]: in the assay with Kupffer cells [1], the “inhibition of IL-18 secretion from Kupffer cells” value is given as “strongly inhibit”. In addition, in assay [2], the “inhibition of secretion of IL-18 from SpA-stimulated KC” value is given as “did not inhibit”.

For the molecule “SpA: protein A purified from Staphylococcus aureus Cowan 1, purchased from Calbiochem”, in the assay with normal B6 mice (SpA 100 μg/day, anti-CD3 48 hours (FIG. 6C)), the “Th1/Th2 differentiation of splenic CD4+ T cells (IFN-γ and IL-4)” value is given as “did not show preferential differentiation of Th2 cells”. For the same molecule, the “IL-12p40 and IL-12p70 in sera (ELISA)” value with normal B6 mice (data not shown) is reported as “not detected”. The “serum levels of IL-18” value in the assay on normal B6 mice (ear skin, once a day for two weeks, day 14 (FIG. 6A)) was “increased”. Also, the “serum IgE levels” value with normal B6 mice (ear skin, once a day for two weeks, day 14 (FIG. 6B)) is reported as “increased in a dose-dependent manner”. In addition, the “development of AD / skin lesion like AD” value in the assay on NC/Nga mice was “do not develop AD”. For the same molecule, the “secretion of IL-12 or IL-18 from Kupffer cells” value in the assay with Kupffer cells [3] was “did not secrete IL-12 or IL-18”. Also, the “IL-18 produced by KC” value in assay [4] (500 μg/ml SpA without adding DMSO, 24 hours (FIG. 7C)) turned out to be 28.4 ± 3.5 pg/mL. The molecule also returned an IL-18 in supernatant in assay [4] (KC 5×10^5/ml, 24 hours, 500 μg/ml SpA, 1 μg/ml LPS or 1×10^6/ml mFasL, ND = not detected) of 31.5 ± 3.2 pg/mL. Further, in assay [4] (various amounts of SpA, 24 hours (FIG. 7B)), the “IL-18 release from newly isolated KC in response to SpA” value is “released IL-18 in a dose-dependent manner”. The “IL-12p35 and IL-12p40 mRNA expression (RT-PCR)” value in the assay on KC of wild-type B6 mice (500 μg/ml SpA, 4 hours (FIG. 7D)) was “neither IL-12p35 nor IL-12p40 were detected”. Further, in the assay with KC of wild-type B6 mice (24-hour incubation, data not shown), the “IL-12p40 or IL-12p70 in supernatant (ELISA)” value was “not detected”. Besides, in the assay on PAM212 cells, the “secretion of activated IL-18 (ELISA and IFN-γ-inducing bioassay)” value was “secreted activated IL-18”.
